In patent US20090048205A1, “COMBINATION THERAPY WITH SYNTHETIC TRITERPENOIDS AND GEMCITABINE” (priority 2007, published 2009):

Experiments:
heme oxygenase-1 (HO-1) = details: at nanomolar concentrations; in vitro and in vivo; Liby et al. (2005); cited from earlier work
IKKb = biological target: T1, IKKb (Homo sapiens, UniProt O14920); details: via binding to Cys179; cited from earlier work
T1 sequence (O14920 1-756): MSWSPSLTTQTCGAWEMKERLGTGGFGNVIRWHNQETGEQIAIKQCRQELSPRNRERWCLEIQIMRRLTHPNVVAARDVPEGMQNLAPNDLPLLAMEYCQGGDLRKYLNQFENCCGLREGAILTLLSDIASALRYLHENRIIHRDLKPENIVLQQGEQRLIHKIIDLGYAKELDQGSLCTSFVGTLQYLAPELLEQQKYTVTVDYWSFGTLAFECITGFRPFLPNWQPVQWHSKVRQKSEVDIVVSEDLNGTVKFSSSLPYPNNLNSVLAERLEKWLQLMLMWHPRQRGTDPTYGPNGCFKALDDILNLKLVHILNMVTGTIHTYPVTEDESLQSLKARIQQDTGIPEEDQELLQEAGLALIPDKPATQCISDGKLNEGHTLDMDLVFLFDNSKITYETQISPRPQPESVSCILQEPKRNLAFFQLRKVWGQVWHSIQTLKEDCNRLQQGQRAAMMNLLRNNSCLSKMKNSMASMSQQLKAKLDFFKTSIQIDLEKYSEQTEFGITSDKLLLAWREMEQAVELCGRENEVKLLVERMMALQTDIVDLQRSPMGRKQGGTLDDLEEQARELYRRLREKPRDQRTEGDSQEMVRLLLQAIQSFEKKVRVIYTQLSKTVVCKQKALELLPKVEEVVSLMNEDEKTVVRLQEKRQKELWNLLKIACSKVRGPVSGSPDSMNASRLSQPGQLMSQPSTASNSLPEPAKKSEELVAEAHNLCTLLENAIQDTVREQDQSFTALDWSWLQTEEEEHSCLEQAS

NF-κB = details: human leukemia cell lines and patient samples; Shishodia et al. (2006); cited from earlier work
[1] = monkeys, equivalent dosages orally in gelatin capsules; Form B versus Form A
[2] = mice; cited from earlier work
[3] = test system: Stage IV pancreatic cancer; details: compared with the combination; cited from earlier work
[4] = cited from earlier work

## CC1(C)CC[C@]2(C(=O)O)CC[C@]3(C)[C@H](C(=O)C=C4[C@@]5(C)C=C(C#N)C(=O)C(C)(C)[C@@H]5CC[C@]43C)[C@@H]2C1 [CDDO, 2-cyano-3,12-dioxooleana-1,9(11)-dien-28-oic acid]
Heme oxygenase-1 (HO-1)
  Expression of heme oxygenase-1 (HO-1) enzyme: rapidly increase the expression

## CC1(C)CC[C@]2(C(=O)n3ccnc3)CC[C@]3(C)[C@H](C(=O)C=C4[C@@]5(C)C=C(C#N)C(=O)C(C)(C)[C@@H]5CC[C@]43C)[C@@H]2C1 [CDDO-Im]
IKKb
  Inhibition of IKKb activity: direct inhibitors
Heme oxygenase-1 (HO-1)
  Expression of heme oxygenase-1 (HO-1) enzyme: rapidly increase the expression

## COC(=O)[C@]12CCC(C)(C)CC1C1C(=O)C=C3[C@@]4(C)C=C(C#N)C(=O)C(C)(C)[C@@H]4CC[C@@]3(C)[C@]1(C)CC2 (stereo partly shown) [CDDO-Me]
IKKb
  Inhibition of IKKb activity: direct inhibitors
NF-κB
  Inhibition of constitutive and inducible NF-κB: potently inhibits

## COC(=O)[C@]12CCC(C)(C)C[C@H]1[C@H]1C(=O)C=C3[C@@]4(C)C=C(C#N)C(=O)C(C)(C)[C@@H]4CC[C@@]3(C)[C@]1(C)CC2 [Form B]
[1]
  Bioavailability: surprisingly better than that of Form A

## Nc1ccn([C@@H]2O[C@H](CO)[C@@H](O)C2(F)F)c(=O)n1 [gemcitabine, 2′,2′-difluoro-2′-deoxycytidine]
[2]
  Maximum tolerated dose: 300 mg/kg/dose
[3]
  Clinical activity of gemcitabine alone (historical): has not produced this level of clinical activity
[4]; humans
  Maximum administered dose: 1000 mg/m^2
[4]; prolonged infusion for up to 12 hours
  Dose reported to be tolerated in patients: 10 mg/m^2/min
